Molecular target: CXCR3 (Macaca fascicularis, UniProt A0A2K5UV19)
Test: functional cellular assay measuring calcium flux in CXCR3 transfected cells (block of CXCR3/IP-10 interaction)
Type: cell-based, Cyno
Conditions: IP-10 induced intracellular calcium flux; Cyno-CHO cells stably expressing recombinant CXCR3 and G-alpha-16; IP-10 at EC80; read-out: IC50
Procedure: Compounds are assessed for the ability to block the interaction of CXCR3 and IP-10 in a functional cellular assay measuring calcium flux in CXCR3 transfected cells.
Cyno-CHO cells, stably expressing recombinant CXCR3 and G-alpha-16 are grown in F12 medium (Mediatech #45000-360) supplemented with 10% (V/V) FBS (Mediatech #35-01500), 1% Geneticin (Invitrogen #10131-027) and 0.2% Zeocin (Invitrogen #R250-05). The cells are spun down and re-suspended in growth media to a concentration of […]. 25 microL of cell suspension is added to each well of a BD-384-well TC treated plate, providing 12,000 cells/well. The plate is incubated at 37° C./5% CO2 overnight. On the day of the assay, the plates are removed, the media is flicked out and 25 microL of Ca-4 dye in assay buffer (HBSS, 10 mM HEPES ph 7.4), containing 2 mM probenacid is added to each well. The cell assay plates are then incubated at 37° C./5% CO2 for one hour.
Test compounds are dissolved in DMSO and diluted to 1.045 mM in DMSO. Just prior to assay, 2.75 microL of appropriately diluted test compound are added to each well of a 384 well plate containing 45 microL of HBSS buffer. After mixing, 5 microL of diluted compound are added to each well of the cell assay plate for a final assay concentration of 10 microM. The plate is incubated at room temperature for 15 min. 10 microL of IP-10 stock solution in HBSS (4× EC80 concentration) are added to each well of the cell assay plate except those cells reserved as blank wells containing buffer only. Intracellular calcium flux is recorded on the HAMAMTSU FDSS6000, using excitation at 480 nm and emission at 540 nm. Data are analyzed using Activity Base software.
In general, the preferred potency range (IC50) of compounds in the above assay is between 1 nM to 3 μM, and the most preferred potency range is 1 nM to 200 nM.

Chain of CXCR3 (A0A2K5UV19 entry or part of it): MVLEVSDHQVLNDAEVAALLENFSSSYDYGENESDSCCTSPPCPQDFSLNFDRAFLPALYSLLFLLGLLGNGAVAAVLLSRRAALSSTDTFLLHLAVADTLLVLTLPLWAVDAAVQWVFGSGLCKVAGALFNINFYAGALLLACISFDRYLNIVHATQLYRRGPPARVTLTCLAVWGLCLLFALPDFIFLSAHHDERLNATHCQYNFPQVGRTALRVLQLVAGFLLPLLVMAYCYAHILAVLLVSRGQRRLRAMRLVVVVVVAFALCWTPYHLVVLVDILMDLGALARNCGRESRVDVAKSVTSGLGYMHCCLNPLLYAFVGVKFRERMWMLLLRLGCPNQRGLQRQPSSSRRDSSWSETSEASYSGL

| Compound | IC50 [µM] |
| --- | --- |
| CN1CCN(c2ncc(-c3cc(F)ccc3N3CCN(C(=O)Cn4cnc5cccnc54)CC3)cn2)CC1 [1-(4-{4-fluoro-2-[2-(4-methylpiperazin-1-yl)pyrimidin-5-yl]phenyl}piperazin-1-yl)-2-(3H-imidazo[4,5-b]pyridin-3-yl)ethanone] | 0.043 |
| CC1CN(c2ccc(F)cc2-c2cnc(S(C)(=O)=O)nc2)CCN1C(=O)Cn1ccc2cccnc21 (stereo not drawn) [1-(4-{4-fluoro-2-[2-(methylsulfonyl)pyrimidin-5-yl]phenyl}-2-methylpiperazin-1-yl)-2-(1H-pyrrolo[2,3-b]pyridin-1-yl)ethanone] | 0.048 |
| CS(=O)(=O)c1ncc(-c2cc(F)ccc2N2CCN(C(=O)Cn3ccc4cccnc43)CC2)cn1 [1-(4-{4-fluoro-2-[2-(methylsulfonyl)pyrimidin-5-yl]phenyl}piperazin-1-yl)-2-(1H-pyrrolo[2,3-b]pyridin-1-yl)ethanone] | 0.067 |
| O=C(Cn1ccc2cccnc21)N1CCN(c2ccc(F)cc2-c2cnc(N3CCOCC3)nc2)CC1 [1-(4-{4-fluoro-2-[2-(morpholin-4-yl)pyrimidin-5-yl]phenyl}piperazin-1-yl)-2-(1H-pyrrolo[2,3-b]pyridin-1-yl)ethanone] | 0.014 |
| O=C(Cn1ccc2ccncc21)N1CCN(c2ccc(F)cc2-c2cnc(N3CCOCC3)nc2)CC1 [1-(4-{4-fluoro-2-[2-(morpholin-4-yl)pyrimidin-5-yl]phenyl}piperazin-1-yl)-2-(1H-pyrrolo[2,3-c]pyridin-1-yl)ethanone] | 0.013 |
| O=C(Cn1cnc2cccnc21)N1CCN(c2ccc(F)cc2-c2cnc(N3CCOCC3)nc2)CC1 [1-(4-{4-fluoro-2-[2-(morpholin-4-yl)pyrimidin-5-yl]phenyl}piperazin-1-yl)-2-(3H-imidazo[4,5-b]pyridin-3-yl)ethanone] | 0.024 |
| CC1CN(c2ccc(C(F)(F)F)cc2-c2cnc(S(C)(=O)=O)nc2)CCN1C(=O)CN1CCCCC1=O (stereo not drawn) [1-[2-(2-methyl-4-{2-[2-(methylsulfonyl)pyrimidin-5-yl]-4-(trifluoromethyl)phenyl}piperazin-1-yl)-2-oxoethyl]piperidin-2-one] | 0.31 |
| CC1CN(c2ccccc2-c2cnc(S(C)(=O)=O)nc2)CCN1C(=O)Cn1c(=O)[nH]c2ccccc21 (stereo not drawn) [1-[2-(2-methyl-4-{2-[2-(methylsulfonyl)pyrimidin-5-yl]phenyl}piperazin-1-yl)-2-oxoethyl]-1,3-dihydro-2H-benzimidazol-2-one] | 0.063 |
| CC1CN(c2ccc(C(F)(F)F)cc2-c2cnc(N3CCC(O)CC3)nc2)CCN1C(=O)CN1CCCCC1=O (stereo not drawn) [1-[2-(4-{2-[2-(4-hydroxypiperidin-1-yl)pyrimidin-5-yl]-4-(trifluoromethyl)phenyl}-2-methylpiperazin-1-yl)-2-oxoethyl]piperidin-2-one] | 0.011 |
| CC1CN(c2ccccc2-c2cnc(N3CCC(O)CC3)nc2)CCN1C(=O)Cn1c(=O)[nH]c2ccccc21 (stereo not drawn) [1-[2-(4-{2-[2-(4-hydroxypiperidin-1-yl)pyrimidin-5-yl]phenyl}-2-methylpiperazin-1-yl)-2-oxoethyl]-1,3-dihydro-2H-benzimidazol-2-one] | 0.008 |
| CC1CN(c2ccccc2-c2cnc(N3CCC(O)CC3)nc2)CCN1C(=O)CN1CCCCC1=O (stereo not drawn) [1-[2-(4-{2-[2-(4-hydroxypiperidin-1-yl)pyrimidin-5-yl]phenyl}-2-methylpiperazin-1-yl)-2-oxoethyl]piperidin-2-one] | 0.019 |
| O=C(Cn1c(=O)[nH]c2ccccc21)N1CCN(c2ccc(F)cc2-c2cnc(N3CCC(O)CC3)nc2)CC1 [1-[2-(4-{4-fluoro-2-[2-(4-hydroxypiperidin-1-yl)pyrimidin-5-yl]phenyl}piperazin-1-yl)-2-oxoethyl]-1,3-dihydro-2H-benzimidazol-2-one] | 0.008 |
| CN1CCN(c2ncc(-c3cc(F)ccc3N3CCN(C(=O)CN4CCCCC4=O)CC3)cn2)CC1 [1-[2-(4-{4-fluoro-2-[2-(4-methylpiperazin-1-yl)pyrimidin-5-yl]phenyl}piperazin-1-yl)-2-oxoethyl]piperidin-2-one] | 0.094 |

More lines, in order of falling IC50, values ahead:

| IC50 [µM] | Compound |
| --- | --- |
| 0.488 | CS(=O)(=O)c1ncc(-c2cc(F)ccc2N2CCN(C(=O)Cn3cnc4cccnc43)CC2)cn1 [1-(4-{4-fluoro-2-[2-(methylsulfonyl)pyrimidin-5-yl]phenyl}piperazin-1-yl)-2-(3H-imidazo[4,5-b]pyridin-3-yl)ethanone] |
| 0.14 | O=C(Cn1c(=O)[nH]c2ccccc21)N1CCN(c2ccccc2-c2ccccc2)CC1 [1-[2-(4-Biphenyl-2-yl-piperazin-1-yl)-2-oxo-ethyl]-1,3-dihydro-benzoimidazol-2-one] |
| 0.02 | CN1CCN(c2ncc(-c3cc(F)ccc3N3CCN(C(=O)Cn4ccc5cccnc54)CC3)cn2)CC1 [1-(4-{4-fluoro-2-[2-(4-methylpiperazin-1-yl)pyrimidin-5-yl]phenyl}piperazin-1-yl)-2-(1H-pyrrolo[2,3-b]pyridin-1-yl)ethanone] |
| 0.02 | CC1CN(c2ccc(C(F)(F)F)cc2-c2cnc(S(C)(=O)=O)nc2)CCN1C(=O)Cn1c(=O)[nH]c2ccccc21 (stereo not drawn) [1-[2-(2-methyl-4-{2-[2-(methylsulfonyl)pyrimidin-5-yl]-4-(trifluoromethyl)phenyl}piperazin-1-yl)-2-oxoethyl]-1,3-dihydro-2H-benzimidazol-2-one] |
| 0.016 | O=C(CN1CCCCC1=O)N1CCN(c2ccc(F)cc2-c2cnc(N3CCC(O)CC3)nc2)CC1 [1-[2-(4-{4-fluoro-2-[2-(4-hydroxypiperidin-1-yl)pyrimidin-5-yl]phenyl}piperazin-1-yl)-2-oxoethyl]piperidin-2-one] |
| 0.015 | O=C(Cn1ccc2cccnc21)N1CCN(c2ccc(F)cc2-c2cnc(N3CCCC3)nc2)CC1 [1-(4-{4-fluoro-2-[2-(pyrrolidin-1-yl)pyrimidin-5-yl]phenyl}piperazin-1-yl)-2-(1H-pyrrolo[2,3-b]pyridin-1-yl)ethanone] |
| 0.014 | O=C(Cn1ccc2ccncc21)N1CCN(c2ccc(F)cc2-c2cnc(N3CCCC3)nc2)CC1 [1-(4-{4-fluoro-2-[2-(pyrrolidin-1-yl)pyrimidin-5-yl]phenyl}piperazin-1-yl)-2-(1H-pyrrolo[2,3-c]pyridin-1-yl)ethanone] |
| 0.014 | O=C(Cn1cnc2cccnc21)N1CCN(c2ccc(F)cc2-c2cnc(N3CCCC3)nc2)CC1 [1-(4-{4-fluoro-2-[2-(pyrrolidin-1-yl)pyrimidin-5-yl]phenyl}piperazin-1-yl)-2-(3H-imidazo[4,5-b]pyridin-3-yl)ethanone] |
| 0.014 | CN1CCN(c2ncc(-c3cc(F)ccc3N3CCN(C(=O)Cn4c(=O)[nH]c5ccccc54)CC3)cn2)CC1 [1-[2-(4-{4-fluoro-2-[2-(4-methylpiperazin-1-yl)pyrimidin-5-yl]phenyl}piperazin-1-yl)-2-oxoethyl]-1,3-dihydro-2H-benzimidazol-2-one] |
| 0.009 | CC1CN(c2ccc(C(F)(F)F)cc2-c2cnc(N3CCC(O)CC3)nc2)CCN1C(=O)Cn1c(=O)[nH]c2ccccc21 (stereo not drawn) [1-[2-(4-{2-[2-(4-hydroxypiperidin-1-yl)pyrimidin-5-yl]-4-(trifluoromethyl)phenyl}-2-methylpiperazin-1-yl)-2-oxoethyl]-1,3-dihydro-2H-benzimidazol-2-one] |
| 0.008 | O=C(Cn1cnc2cccnc21)N1CCN(c2ccc(F)cc2-c2cnc(N3CCC(O)CC3)nc2)CC1 [1-(4-{4-fluoro-2-[2-(4-hydroxypiperidin-1-yl)pyrimidin-5-yl]phenyl}piperazin-1-yl)-2-(3H-imidazo[4,5-b]pyridin-3-yl)ethanone] |
